The test has as its target T1, human M1 receptor (hCHRM1) (Homo sapiens, UniProt P11229).
T1 construct: expressed in transfected cells
T1 sequence (P11229 1-460): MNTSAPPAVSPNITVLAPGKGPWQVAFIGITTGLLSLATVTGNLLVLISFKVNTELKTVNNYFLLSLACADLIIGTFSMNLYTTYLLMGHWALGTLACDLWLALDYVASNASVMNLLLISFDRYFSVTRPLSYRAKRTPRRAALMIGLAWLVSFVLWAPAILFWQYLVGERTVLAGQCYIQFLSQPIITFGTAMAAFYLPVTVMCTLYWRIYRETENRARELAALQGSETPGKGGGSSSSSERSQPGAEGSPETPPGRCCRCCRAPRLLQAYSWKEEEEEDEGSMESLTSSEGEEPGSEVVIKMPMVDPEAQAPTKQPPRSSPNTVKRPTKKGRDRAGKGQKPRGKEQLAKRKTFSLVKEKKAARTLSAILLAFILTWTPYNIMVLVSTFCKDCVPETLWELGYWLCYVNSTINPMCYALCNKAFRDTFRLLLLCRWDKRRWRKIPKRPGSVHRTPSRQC
Put plainly: Measurement of M1 receptor positive allosteric modulator (M1PAM) activity, calcium fluorescence (FLIPRtetra) with acetylcholine at EC20. Conditions: for activity (%) at 10 μM: 10 μM test compound, 100% = acetylcholine 1 μM, 0% = DMSO, acetylcholine at EC20; for EC50: inflection point of concentration-dependent curve, CHO-K1 cells expressing hCHRM1, acetylcholine at EC20 (final 0.6-0.8 nM), read-out: IP value. The test is classed as cell-based. In short, it runs like this: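 CHO-K1 cells stably expressing hCHRM1, Fluo-4 AM loaded; compound added with acetylcholine at EC20 (final 0.6-0.8 nM), fluorescence read 1 min. Activity normalised to 1 μM acetylcholine (100%) and DMSO (0%); IP values taken as inflection point of the concentration-response curve.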

Results on 25 compounds are retold here after patent US9315458B2, “Nitrogen-containing heterocyclic compound” (Takeda Pharmaceutical Company Limited, priority 2014, dated 2016).

Each structure is given as a SMILES string.

Regarding `Cc1c(Cc2ccc(C#N)cc2)cc2c(c1C)CN([C@H]1COCC[C@@H]1O)C2=O` [Example 156, 4-({2-[(3S,4S)-4-hydroxytetrahydro-2H-pyran-3-yl]-6,7-dimethyl-3-oxo-2,3-dihydro-1H-isoindol-5-yl}methyl)benzonitrile], the “activity (%) at 10 μM” value is given as 80% and the EC50 stood at 4.3 nM.

In the case of `Cc1c(Cc2ccc(OC(F)F)cc2)cc2c(c1C)CN([C@H]1COCC[C@@H]1O)C2=O` [Example 22, 1,5-anhydro-2,4-dideoxy-2-(6-(4-(difluoromethoxy)benzyl)-4,5-dimethyl-1-oxo-1,3-dihydro-2H-isoindol-2-yl)-L-threo-pentitol], the “activity (%) at 10 μM” value stood at 110% and the EC50 worked out at 32 nM.

`Cc1cc2c(cc1Cc1ccc(-n3cccn3)cc1)C(=O)N(CC(C)(C)O)C2` [Example 104, 2-(2-hydroxy-2-methylpropyl)-5-methyl-6-(4-(1H-pyrazol-1-yl)benzyl)isoindolin-1-one]: the “activity (%) at 10 μM” value is recorded as 101% and the EC50 is 54 nM.

With `Cc1cc2c(cc1Cc1ccc(-c3cn(C)nn3)cc1F)C(=O)N(CC1CCCO1)C2` (centres unmarked) [Example 54, 6-(2-fluoro-4-(1-methyl-1H-1,2,3-triazol-4-yl)benzyl)-5-methyl-2-(tetrahydrofuran-2-ylmethyl)isoindolin-1-one], the “activity (%) at 10 μM” value is reported as 92% and the EC50 is 37 nM.

Consider `Cc1c(Cc2ccc(-c3cnn(C)c3)cc2)cc2c(c1C)CN([C@H]1CCCC[C@@H]1O)C2=O` (racemic) [Example 89, rac-2-(trans-2-hydroxycyclohexyl)-4,5-dimethyl-6-(4-(1-methyl-1H-pyrazol-4-yl)benzyl)isoindolin-1-one], for which the “activity (%) at 10 μM” value amounted to 94% and the EC50 was 5.7 nM.

Regarding `Cc1cc2c(cc1Cc1ccc(-n3cccn3)cc1)C(=O)N([C@H]1CCC[C@@H]1O)C2` [Example 4, 2-((1S,2S)-2-hydroxycyclopentyl)-5-methyl-6-(4-(1H-pyrazol-1-yl)benzyl)isoindolin-1-one], the “activity (%) at 10 μM” value worked out at 98% and the EC50 came to 19 nM.

`Cc1cc2c(cc1Cc1ccc(-n3cccn3)cc1)C(=O)N([C@H]1COCC[C@@H]1O)C2` [Example 21, 1,5-anhydro-2,4-dideoxy-2-(5-methyl-1-oxo-6-(4-(1H-pyrazol-1-yl)benzyl)-1,3-dihydro-2H-isoindol-2-yl)-L-threo-pentitol]: the “activity (%) at 10 μM” value amounted to 106% and the EC50 is 6.2 nM.

Turning to `CCc1cc2c(cc1Cc1ccc(-c3cn(C)nn3)cc1)C(=O)N(CC1CCCO1)C2` (centres unmarked) [Example 105, 5-ethyl-6-(4-(1-methyl-1H-1,2,3-triazol-4-yl)benzyl)-2-(tetrahydrofuran-2-ylmethyl)isoindolin-1-one], the “activity (%) at 10 μM” value was 92% and the EC50 amounted to 10 nM.

Consider `Cn1cc(-c2ccc(Cc3ccc4c(c3)C(=O)N([C@H]3CCCC[C@@H]3O)C4)cn2)cn1` (racemic) [Example 1, rac-2-(trans-2-hydroxycyclohexyl)-6-((6-(1-methyl-1H-pyrazol-4-yl)pyridin-3-yl)methyl)isoindolin-1-one], for which the “activity (%) at 10 μM” value is recorded as 111% and the EC50 came out at 750 nM.

With `Cc1c(Cc2ccc(C#N)cc2F)cc2c(c1C)CN([C@H]1COCC[C@@H]1O)C2=O` (racemic) [Example 112, rac-3-fluoro-4-((2-(trans-4-hydroxytetrahydro-2H-pyran-3-yl)-6,7-dimethyl-3-oxo-2,3-dihydro-1H-isoindol-5-yl)methyl)benzonitrile], the “activity (%) at 10 μM” value was 93% and the EC50 stood at 30 nM.

Consider `O=C1c2cc(Cc3ccc(-n4cccn4)cc3)c(C3CC3)cc2CN1CC1CCCO1` (centres unmarked) [Example 62, 5-cyclopropyl-6-(4-(1H-pyrazol-1-yl)benzyl)-2-(tetrahydrofuran-2-ylmethyl)isoindolin-1-one], for which the “activity (%) at 10 μM” value is given as 103% and the EC50 is 95 nM.

For `CCc1cc2c(cc1Cc1ccc(-n3cccn3)cc1)C(=O)N(CC1CCCO1)C2` (centres unmarked) [Example 58, 5-ethyl-6-(4-(1H-pyrazol-1-yl)benzyl)-2-(tetrahydrofuran-2-ylmethyl)isoindolin-1-one], the “activity (%) at 10 μM” value was determined as 100% and the EC50 came out at 95 nM.

For `Cc1c(Cc2ccc(-n3cccn3)cc2)cc2c(c1F)CN(CC(C)(C)O)C2=O` [Example 127, 4-fluoro-2-(2-hydroxy-2-methylpropyl)-5-methyl-6-(4-(1H-pyrazol-1-yl)benzyl)isoindolin-1-one], the “activity (%) at 10 μM” value amounted to 104% and the EC50 stood at 59 nM.

On to `Cc1c(Cc2ccc(-c3ccn(C)n3)cc2)cc2c(c1C)CN([C@H]1CCC[C@@H]1O)C2=O` (racemic) [Example 83, rac-2-(trans-2-hydroxycyclopentyl)-4,5-dimethyl-6-(4-(1-methyl-1H-pyrazol-3-yl)benzyl)isoindolin-1-one], for which the “activity (%) at 10 μM” value is given as 92% and the EC50 stood at 13 nM.

With `Cc1cc(-c2ccc(Cc3cc4c(cc3C)CN([C@H]3CCC[C@@H]3O)C4=O)cc2)cnn1` (racemic) [Example 91, rac-2-(trans-2-hydroxycyclopentyl)-5-methyl-6-(4-(6-methylpyridazin-4-yl)benzyl)isoindolin-1-one], the “activity (%) at 10 μM” value came out at 95% and the EC50 worked out at 38 nM.

Regarding `Cc1cc2c(cc1Cc1ccc(-c3ccn(C)n3)cc1)C(=O)N([C@H]1CCC[C@@H]1O)C2` (racemic) [Example 51, rac-2-(trans-2-hydroxycyclopentyl)-5-methyl-6-(4-(1-methyl-1H-pyrazol-3-yl)benzyl)isoindolin-1-one], the “activity (%) at 10 μM” value is reported as 86% and the EC50 is 42 nM.

With `COc1c(Cc2ccc(-n3cccn3)cc2)cc2c(c1F)CN([C@H]1CCCC[C@@H]1O)C2=O` (racemic) [Example 97, rac-4-fluoro-2-(trans-2-hydroxycyclohexyl)-5-methoxy-6-(4-(1H-pyrazol-1-yl)benzyl)isoindolin-1-one], the “activity (%) at 10 μM” value is on record as 96% and the EC50 was 5.3 nM.

Turning to `Cc1cc2c(cc1Cc1ccc(-c3ccn(C)n3)nc1)C(=O)N([C@H]1CCC[C@@H]1O)C2` (racemic) [Example 43, rac-2-(trans-2-hydroxycyclopentyl)-5-methyl-6-((6-(1-methyl-1H-pyrazol-3-yl)pyridin-3-yl)methyl)isoindolin-1-one], the “activity (%) at 10 μM” value was determined as 110% and the EC50 was 98 nM.

For the compound `Cc1c(Cc2ccc(-n3cccn3)cc2)cc2c(c1C)CN([C@H]1CCCC[C@@H]1O)C2=O` (racemic) [Example 29, rac-2-(trans-2-hydroxycyclohexyl)-4,5-dimethyl-6-(4-(1H-pyrazol-1-yl)benzyl)isoindolin-1-one], the “activity (%) at 10 μM” value is 102% and the EC50 came out at 9.5 nM.

Regarding `Cc1c(Cc2ccc(C#N)c(F)c2)cc2c(c1C)CN([C@H]1COCC[C@@H]1O)C2=O` [Example 26, 1,5-anhydro-2-(6-(4-cyano-3-fluorobenzyl)-4,5-dimethyl-1-oxo-1,3-dihydro-2H-isoindol-2-yl)-2,4-dideoxy-L-threo-pentitol], the “activity (%) at 10 μM” value is 99% and the EC50 stood at 9.2 nM.

In the case of `CCc1cc2c(cc1Cc1ccc(-n3cccn3)cc1)C(=O)N([C@H]1COCC[C@@H]1O)C2` [Example 128, 5-ethyl-2-[(3S,4S)-4-hydroxytetrahydro-2H-pyran-3-yl]-6-[4-(1H-pyrazol-1-yl)benzyl]-2,3-dihydro-1H-isoindol-1-one], the “activity (%) at 10 μM” value amounted to 97% and the EC50 came out at 5 nM.

In the case of `COc1ccc(Cc2cc3c(c(Cl)c2C)CN([C@H]2CCC[C@@H]2O)C3=O)cc1` [Example 152, 4-chloro-2-((1S,2S)-2-hydroxycyclopentyl)-6-(4-methoxybenzyl)-5-methylisoindolin-1-one], the “activity (%) at 10 μM” value is listed as 91% and the EC50 was 47 nM.

Consider `COc1cc(Cc2cc3c(c(C)c2C)CN([C@H]2COCC[C@@H]2O)C3=O)ccc1F` [Example 23, 1,5-anhydro-2,4-dideoxy-2-(6-(4-fluoro-3-methoxybenzyl)-4,5-dimethyl-1-oxo-1,3-dihydro-2H-isoindol-2-yl)-L-threo-pentitol], for which the “activity (%) at 10 μM” value is given as 100% and the EC50 was found to be 46 nM.

For the compound `Cc1c(Cc2ccc(-n3cccn3)cc2)cc2c(c1C)CN([C@H]1COCC[C@@H]1O)C2=O` (racemic) [Example 35, rac-2-(trans-4-hydroxytetrahydro-2H-pyran-3-yl)-4,5-dimethyl-6-(4-(1H-pyrazol-1-yl)benzyl)-2,3-dihydro-1H-isoindol-1-one], the “activity (%) at 10 μM” value worked out at 103% and the EC50 came to 3.9 nM.

As to `Cc1c(Cc2ccc(-c3ccn(C)n3)cc2)cc2c(c1F)CN([C@H]1CCC[C@@H]1O)C2=O` [Example 111, 4-fluoro-2-((1S,2S)-2-hydroxycyclopentyl)-5-methyl-6-(4-(1-methyl-1H-pyrazol-3-yl)benzyl)isoindolin-1-one], the “activity (%) at 10 μM” value worked out at 103% and the EC50 turned out to be 26 nM.
